Test results taken from US6706663B2, “Herbicidal 3-heterocyclic substituted benzisothiazole and benzisoxazole compounds” (Wyeth, priority 2000, dated 2004).

How the values were obtained:
[1] = system: ECHCG (Echinochloa crus-galli); test: Postemergence herbicidal evaluation; format: in vivo, (L.) Beau; conditions: postemergence
Outline: (§1)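 Visual 0–9 injury scores versus control plants, covering stand, vigour, malformation, size, chlorosis and general appearance, taken four to five weeks post-spray and averaged over replicate tests. Plants were sprayed at roughly two weeks old and held on greenhouse benches.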

SETVI (Setaria viridis) = test: Postemergence herbicidal evaluation; format: in vivo, (L.) Beau; conditions: postemergence
Outline: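 Visual injury score (0-9: stand, vigor, malformation, size, chlorosis, overall appearance vs untreated control) taken four to five weeks post-spray. Two-week-old seedlings received about 0.0040 to 1.000 kg/ha active compound in acetone/water with 0.5% TWEEN 20.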

[2] = system: TRZAWR (Wheat, Winter, cv Riband); test: Postemergence herbicidal evaluation; format: in vivo, Triticum aestivum; conditions: postemergence
Outline: as §1

[3] = system: ABUTH (Abutilon theophrasti); test: Preemergence herbicidal evaluation; format: in vivo, Medic.; conditions: rated 4-5 weeks after treatment
[4] = system: AMBEL (Ambrosia artemisifolia); test: Preemergence herbicidal evaluation; format: in vivo, L.; conditions: rated 4-5 weeks after treatment
Outline: (§2)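 Preemergence soil spray, aq. acetone; greenhouse; visual 0–9 score vs control at 4–5 wk.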

[5] = system: CASOB (Cassia obtusifolia); test: Preemergence herbicidal evaluation; format: in vivo, L.; conditions: rated 4-5 weeks after treatment
Outline: as §2

[6] = system: CHEAL (Chenopodium album); test: Preemergence herbicidal evaluation; format: in vivo, L.; conditions: rated 4-5 weeks after treatment
Outline: as §2

[7] = system: IPOHE (Ipomoea hederacea); test: Preemergence herbicidal evaluation; format: in vivo, (L.) Jacq.; conditions: rated 4-5 weeks after treatment
[8] = system: GLXMAW (Soybean, Williams); test: Preemergence herbicidal evaluation; format: in vivo, Glycine max, (L.) Merr. cv Williams; conditions: rated 4-5 weeks after treatment
ZEAMX (Corn, Field) = test: Preemergence herbicidal evaluation; format: in vivo, Zea mays, L.; conditions: rated 4-5 weeks after treatment
[9] = system: ECHORC (Echinochloa oryzoides); test: Flooded paddy, preemergence weed control; format: in vivo, Echinochloa oryzoides (Ard.) Fritsch.; conditions: rated 3-4 weeks after treatment, 0-9 rating scale
Outline: (§3)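 Scoring used a 0-9 visual scale relative to control. Before that, seeds or propagules were planted shallowly in silt loam and flooded to 1.5–3 cm, a depth maintained throughout, with greenhouse care during the test.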

CYPIR (Cyperus iria) = test: Flooded paddy, preemergence weed control; format: in vivo; conditions: rated 3-4 weeks after treatment, 0-9 rating scale
Outline: as §3

[10] = system: MOOVA (Monochoria vaginalis); test: Flooded paddy, preemergence weed control; format: in vivo, Presl.; conditions: rated 3-4 weeks after treatment, 0-9 rating scale
Outline: as §3

[11] = system: SAGPY (Sagittaria pygmaea); test: Flooded paddy, preemergence weed control; format: in vivo, L.; conditions: rated 3-4 weeks after treatment, 0-9 rating scale
Outline: as §3

ORYSAT (Rice, Tebonnet) = test: Flooded paddy, post-transplant rice tolerance; format: in vivo, Oryza sativa, (L.) Tebonnet; conditions: flooded paddy, post-transplant rice, rated 3-4 weeks after treatment, 0-9 rating scale
Outline: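 Ten-day-old seedlings, 2/pot, silt loam; flood kept 1.5–3 cm over soil; herbicide applied post-transplant; greenhouse; score 0–9 visual vs control.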

COCC1COC(c2nsc3ccc(-n4c(=O)cc(C(F)(F)F)n(C)c4=O)cc23)O1 (stereo not drawn) [Compound 64, 3-[3-[4-(methoxymethyl)-1,3-dioxolan-2-yl]-1,2-benzisothiazol-5-yl]-1-methyl-6-(trifluoromethyl)uracil]
4.0: TRZAWR herbicidal rating ([2]; rate 0.0320 kg/ha)
8.0: herbicidal rating, ORYSAT (rice tolerance) (ORYSAT (Rice, Tebonnet); rate 0.0320 kg/ha)
6.0: SETVI herbicidal rating (SETVI (Setaria viridis); rate 0.0320 kg/ha) | herbicidal rating, CYPIR (CYPIR (Cyperus iria); rate 0.0320 kg/ha)
9.0: Preemergence herbicidal rating ABUTH ([3]; Rate 0.0620 kg/ha) | Preemergence herbicidal rating ABUTH ([3]; Rate 0.1250 kg/ha) | Preemergence herbicidal rating ABUTH ([3]; Rate 0.2500 kg/ha) | Preemergence herbicidal rating AMBEL ([4]; Rate 0.0620 kg/ha) | Preemergence herbicidal rating AMBEL ([4]; Rate 0.1250 kg/ha) | Preemergence herbicidal rating AMBEL ([4]; Rate 0.2500 kg/ha) | Preemergence herbicidal rating CASOB ([5]; Rate 0.1250 kg/ha) | Preemergence herbicidal rating CASOB ([5]; Rate 0.2500 kg/ha) | Preemergence herbicidal rating CHEAL ([6]; Rate 0.0620 kg/ha) | Preemergence herbicidal rating CHEAL ([6]; Rate 0.1250 kg/ha) | Preemergence herbicidal rating CHEAL ([6]; Rate 0.2500 kg/ha) | Preemergence herbicidal rating IPOHE ([7]; Rate 0.1250 kg/ha) | Preemergence herbicidal rating IPOHE ([7]; Rate 0.2500 kg/ha) | Preemergence herbicidal rating GLXMAW ([8]; Rate 0.0620 kg/ha) | Preemergence herbicidal rating GLXMAW ([8]; Rate 0.1250 kg/ha) | Preemergence herbicidal rating GLXMAW ([8]; Rate 0.2500 kg/ha) | Preemergence herbicidal rating ZEAMX (ZEAMX (Corn, Field); Rate 0.1250 kg/ha) | Preemergence herbicidal rating ZEAMX (ZEAMX (Corn, Field); Rate 0.2500 kg/ha) | herbicidal rating, ECHORC ([9]; rate 0.0320 kg/ha) | herbicidal rating, ECHORC ([9]; rate 0.1250 kg/ha) | herbicidal rating, CYPIR (CYPIR (Cyperus iria); rate 0.1250 kg/ha) | herbicidal rating, MOOVA ([10]; rate 0.0320 kg/ha) | herbicidal rating, MOOVA ([10]; rate 0.1250 kg/ha) | herbicidal rating, SAGPY ([11]; rate 0.1250 kg/ha) | herbicidal rating, ORYSAT (rice tolerance) (ORYSAT (Rice, Tebonnet); rate 0.1250 kg/ha)
5.5: herbicidal rating, ORYSAT (rice tolerance) (ORYSAT (Rice, Tebonnet); rate 0.0080 kg/ha)
5.0: ECHCG herbicidal rating ([1]; rate 0.0620 kg/ha) | TRZAWR herbicidal rating ([2]; rate 0.0620 kg/ha)
0.0: herbicidal rating, MOOVA ([10]; rate 0.0080 kg/ha) | herbicidal rating, SAGPY ([11]; rate 0.0080 kg/ha)
7.5: Preemergence herbicidal rating CASOB ([5]; Rate 0.0620 kg/ha)
7.0: SETVI herbicidal rating (SETVI (Setaria viridis); rate 0.0620 kg/ha) | Preemergence herbicidal rating IPOHE ([7]; Rate 0.0620 kg/ha)
3.0: ECHCG herbicidal rating ([1]; rate 0.0320 kg/ha) | herbicidal rating, SAGPY ([11]; rate 0.0320 kg/ha)
8.5: Preemergence herbicidal rating ZEAMX (ZEAMX (Corn, Field); Rate 0.0620 kg/ha)
1.5: herbicidal rating, ECHORC ([9]; rate 0.0080 kg/ha) | herbicidal rating, CYPIR (CYPIR (Cyperus iria); rate 0.0080 kg/ha)

CC1=CC(C)(C)OC(c2nsc3ccc(-n4c(=O)cc(C(F)(F)F)n(C)c4=O)cc23)C1 (stereo not drawn) [Compound 65, 3-[3-(3,6-dihydro-4,6,6-trimethyl-2H-pyran-2-yl)-1,2-benzisothiazol-5-yl]-1-methyl-6-(trifluoromethyl)uracil]
0.0: Preemergence herbicidal rating CASOB ([5]; Rate 0.0620 kg/ha) | Preemergence herbicidal rating CASOB ([5]; Rate 0.1250 kg/ha) | Preemergence herbicidal rating CASOB ([5]; Rate 0.2500 kg/ha) | Preemergence herbicidal rating IPOHE ([7]; Rate 0.0620 kg/ha) | herbicidal rating, ECHORC ([9]; rate 0.0080 kg/ha) | herbicidal rating, ECHORC ([9]; rate 0.0320 kg/ha) | herbicidal rating, CYPIR (CYPIR (Cyperus iria); rate 0.0080 kg/ha) | herbicidal rating, CYPIR (CYPIR (Cyperus iria); rate 0.0320 kg/ha) | herbicidal rating, MOOVA ([10]; rate 0.0080 kg/ha) | herbicidal rating, MOOVA ([10]; rate 0.0320 kg/ha) | herbicidal rating, SAGPY ([11]; rate 0.0080 kg/ha) | herbicidal rating, SAGPY ([11]; rate 0.0320 kg/ha) | herbicidal rating, SAGPY ([11]; rate 0.1250 kg/ha) | herbicidal rating, ORYSAT (rice tolerance) (ORYSAT (Rice, Tebonnet); rate 0.0080 kg/ha) | herbicidal rating, ORYSAT (rice tolerance) (ORYSAT (Rice, Tebonnet); rate 0.0320 kg/ha) | herbicidal rating, ORYSAT (rice tolerance) (ORYSAT (Rice, Tebonnet); rate 0.1250 kg/ha)
9.0: Preemergence herbicidal rating ABUTH ([3]; Rate 0.0620 kg/ha) | Preemergence herbicidal rating ABUTH ([3]; Rate 0.1250 kg/ha) | Preemergence herbicidal rating ABUTH ([3]; Rate 0.2500 kg/ha) | Preemergence herbicidal rating AMBEL ([4]; Rate 0.1250 kg/ha) | Preemergence herbicidal rating AMBEL ([4]; Rate 0.2500 kg/ha) | Preemergence herbicidal rating CHEAL ([6]; Rate 0.0620 kg/ha) | Preemergence herbicidal rating CHEAL ([6]; Rate 0.1250 kg/ha) | Preemergence herbicidal rating CHEAL ([6]; Rate 0.2500 kg/ha) | Preemergence herbicidal rating IPOHE ([7]; Rate 0.2500 kg/ha) | Preemergence herbicidal rating ZEAMX (ZEAMX (Corn, Field); Rate 0.2500 kg/ha) | herbicidal rating, CYPIR (CYPIR (Cyperus iria); rate 0.1250 kg/ha)
7.0: SETVI herbicidal rating (SETVI (Setaria viridis); rate 0.0620 kg/ha) | Preemergence herbicidal rating ZEAMX (ZEAMX (Corn, Field); Rate 0.0620 kg/ha) | herbicidal rating, ECHORC ([9]; rate 0.1250 kg/ha)
2.0: Preemergence herbicidal rating GLXMAW ([8]; Rate 0.0620 kg/ha)
6.0: Preemergence herbicidal rating GLXMAW ([8]; Rate 0.2500 kg/ha)
4.0: ECHCG herbicidal rating ([1]; rate 0.0320 kg/ha) | TRZAWR herbicidal rating ([2]; rate 0.0320 kg/ha)
3.0: SETVI herbicidal rating (SETVI (Setaria viridis); rate 0.0320 kg/ha) | Preemergence herbicidal rating IPOHE ([7]; Rate 0.1250 kg/ha) | Preemergence herbicidal rating GLXMAW ([8]; Rate 0.1250 kg/ha) | herbicidal rating, MOOVA ([10]; rate 0.1250 kg/ha)
8.0: Preemergence herbicidal rating AMBEL ([4]; Rate 0.0620 kg/ha) | Preemergence herbicidal rating ZEAMX (ZEAMX (Corn, Field); Rate 0.1250 kg/ha)
5.0: ECHCG herbicidal rating ([1]; rate 0.0620 kg/ha) | TRZAWR herbicidal rating ([2]; rate 0.0620 kg/ha)
